Laboratory results from US12091410B2, “Heterocyclic compound” (Takeda Pharmaceutical Company Limited, priority 2018, dated 2024).

target: T1, human orexin type 2 receptor (Homo sapiens, UniProt O43614); assay: Measurement of orexin type 2 receptor agonist activity (calcium fluorescence, Fluo-4 AM, CHO cells forcibly expressing human OX2 receptor); assay type: cell-based; conditions: test compound 3 μM, DMSO = 0%, orexin A (human) 10 nM = 100%
T1 construct: expressed in transfected cells
T1 sequence (O43614 1-444): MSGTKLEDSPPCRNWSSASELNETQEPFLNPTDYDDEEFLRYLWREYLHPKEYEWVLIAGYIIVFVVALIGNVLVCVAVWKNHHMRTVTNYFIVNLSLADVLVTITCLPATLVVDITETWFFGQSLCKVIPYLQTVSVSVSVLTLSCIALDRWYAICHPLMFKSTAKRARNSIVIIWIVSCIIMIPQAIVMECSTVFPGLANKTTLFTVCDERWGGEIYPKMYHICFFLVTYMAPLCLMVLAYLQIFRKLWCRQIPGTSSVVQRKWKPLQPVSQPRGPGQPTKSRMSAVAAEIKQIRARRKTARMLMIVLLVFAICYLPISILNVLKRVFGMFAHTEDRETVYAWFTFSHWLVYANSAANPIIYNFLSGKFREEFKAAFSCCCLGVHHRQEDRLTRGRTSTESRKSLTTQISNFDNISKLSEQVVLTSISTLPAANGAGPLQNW
Text: To obtain a cell clone stably expressing human orexin type 2 receptor, human orexin type 2 receptor cDNA was inserted into pcDNA3.1(+) plasmid vector (Invitrogen), and a plasmid DNA for expression of human orexin type 2 receptor (pcDNA3.1(+)/hOX2R) was cloned. The plasmid DNA was introduced into CHO-dhfr cell by an electroporation method, and human orexin type 2 receptor expressing clone cells were obtained by limiting dilution method by using G418 drug resistance as a selection marker.
CHO cells forcibly expressing human OX2 receptor were seeded in each well of 384 well black transparent bottom plate (BD Falcon) at 7,500 cells/well, and cultured for one day in a 5% CO2 incubator at 37° C. After removal of the medium in the cell plate, assay buffer A containing a calcium indicator (HBSS (Thermo Fisher Scientific), 20 mM HEPES (Thermo Fisher Scientific), 0.1% BSA (Sigma-Aldrich), 2.5 μg/mL Fluo-4 AM (DOJINDO Chemical), 0.08% Pluronic F127 (DOJINDO Chemical), 1.25 mM probenecid (DOJINDO Chemical)) was added at 30 μL/well. The plate was stood for 30 min in a 5% CO2 incubator at 37° C., and further stood at room temperature for 30 min. A test compound prepared by diluting with assay buffer B (HBSS, 20 mM HEPES, 0.1% BSA) was added at 10 μL/well, and the fluorescence value was measured by FDSSpCELL (Hamamatsu Photonics K. K.) every one sec for 1 min, and thereafter every two sec for 1 min 40 sec. The activity (%) of the test compound was calculated assuming that variation in the fluorescence value when DMSO was added instead of the test compound was 0%, and variation in the fluorescence value when orexin A (human) (PEPTIDE INSTITUTE, INC.) was added at the final concentration of 10 nM was 100%.

Compound | OX2R agonist activity (3 μM, %) [%]
CCS(=O)(=O)N[C@H]1CCn2cc(C)nc2[C@H]1Cc1cccc(-c2cccc(F)c2)c1 (relative stereo) [Example 58, rel-N-{(7S,8S)-8-[(3′-fluoro[1,1′-biphenyl]-3-yl)methyl]-2-methyl-5,6,7,8-tetrahydroimidazo[1,2-a]pyridin-7-yl}ethanesulfonamide] | 95
CCc1cc2n(n1)[C@@H](COC1CCN(c3ncccn3)CC1)[C@@H](NS(C)(=O)=O)CC2 (relative stereo) [Example 59, rel-N-[(6S,7R)-2-ethyl-7-({[1-(pyrimidin-2-yl)piperidin-4-yl]oxy}methyl)-4,5,6,7-tetrahydropyrazolo[1,5-a]pyridin-6-yl]methanesulfonamide] | 101
Cc1cn2c(n1)C(COC1CCN(c3ncc(F)cn3)CC1)C(NC(=O)[C@@H]1CCCO1)CC2 (stereo in doubt) [Example 63, (2S)—N-[(7S*,8S*)-8-({[1-(5-fluoropyrimidin-2-yl)piperidin-4-yl]oxy}methyl)-2-methyl-5,6,7,8-tetrahydroimidazo[1,2-a]pyridin-7-yl]oxolane-2-carboxamide] | 92
